# Test system: Lkb1-null cells
# Experiment: In vitro study of combination treatments with AZD7762
# Type: cell-based, mouse
# Settings: data not shown
smiles,measurement,value
Nc1ccn([C@@H]2O[C@H](CO)[C@@H](O)C2(F)F)c(=O)n1 [Gemcitabine],synergy with AZD7762 in the treatment of Lkb1-null cells,moderately synergistic

# Source: patent publication US20140314791A1, “METHODS OF TREATING CANCER” (DANA-FARBER CANCER INSTITUTE, INC., priority 2012, published 2014)
